# Like-named read-outs stand apart in the source and are kept apart here.
# How the values were obtained:
# [1] = tested on: levator ani muscle; test: Hershberger assays of compounds H-1 to H-4; format: in vivo, rat; conditions: calculated in Win Non-Lin
# Description: FIG. 3 depicts results of Hershberger assays of compounds of the invention as described in Example 17. AUC is area under the concentration-time curve.
# Hershberger assays as described above for Formulas VIII-XIV were also performed on compounds H-1, H-2, H-3, & H-4, as reported in FIG. 3, along with AR binding data in some cases in Table 11. The reported Emax values were calculated in Win Non-Lin®.
# [2] = tested on: ovariectomized rat model; conditions: cited from earlier work
# [3] = tested on: prostate, seminal vesicles and levator ani muscle; test: Androgenic and anabolic activity in castrated (ORX) male rats, daily oral gavage for fourteen days; format: in vivo, rat; conditions: castrated rats, comparators
# Description: Male Sprague-Dawley rats weighing approximately 200 g were purchased from Harlan Bioproducts for Science (Indianapolis, Ind.). […] The anabolic and androgenic activity of compound of Formula VIII in intact animals was tested, as well as a dose response evaluation in acutely orchidectomized (ORX) animals. Regenerative effects of the compound of Formula VIII in chronically (9 days) ORX rats was similarly evaluated.
# The test article for this study was weighed and dissolved in 10% DMSO (Fisher) diluted with PEG 300 (Acros Organics, NJ) for preparation of the appropriate dosage concentrations. […] Animals were randomly assigned to one of seven groups consisting of 4 to 5 animals per group. Control groups (intact and ORX) were administered vehicle daily. Compound of Formula VIII was administered via oral gavage at doses of 0.01, 0.03, 0.1, 0.3, 0.75, and 1 mg/day to both intact and ORX groups. Where appropriate, animals were castrated on day one of the study. Treatment with compound of Formula VIII began nine days post ORX and was administered daily via oral gavage for fourteen days.
# (§1) In addition, ventral prostate, seminal vesicles, and levator ani muscle were removed, individually weighed, normalized to body weight, and expressed as a percentage of intact control. Student's T-test was used to compare individual dose groups to the intact control group. Significance was defined a priori as a P-value <0.05. Ventral prostate and seminal vesicle weights were evaluated as a measure of androgenic activity, whereas levator ani muscle weight was evaluated as a measure of anabolic activity. Blood was collected from the abdominal aorta, centrifuged, and sera were frozen at −80° C. prior to determination of serum hormone levels. Serum luteinizing hormone (LH) and follicle stimulating hormone (FSH) concentrations were determined.
# Male Sprague-Dawley rats weighing approximately 200 g were purchased from Harlan Bioproducts for Science (Indianapolis, Ind.). […] Anabolic and androgenic activity of compound of Formula IX in intact animals was evaluated, and the dose response in acutely orchidectomized (ORX) animals was evaluated as well. Regenerative effects of compound of Formula IX in chronically (9 days) ORX rats were also assessed.
# The compound was weighed and dissolved in 10% DMSO (Fisher) diluted with PEG 300 (Acros Organics, NJ) for preparation of the appropriate dosage concentrations. […] Intact and ORX animals were randomly assigned to one of seven groups consisting of 4 to 5 animals per group. Control groups (intact and ORX) were administered vehicle daily. Compound of Formula IX was administered via oral gavage at doses of 0.01, 0.03, 0.1, 0.3, 0.75, and 1 mg/day to both intact and ORX groups.
# as §1, with “Castrated animals (on day one of the study) were randomly assigned to dose groups (4-5 animals/group) of 0.01, 0.03, 0.1, 0.3, 0.75, and 1 mg/day, for dose-response evaluation. Dosing began nine days post ORX and was administered daily via oral gavage for fourteen days. […] In” for “In”, “As a measure of androgenic activity, ventral” for “Ventral”, “evaluated,” for “evaluated as a measure of androgenic activity,”, “lutenizing” for “luteinizing”
# Male Sprague-Dawley rats weighing approximately 200 g were purchased from Harlan Bioproducts for Science (Indianapolis, Ind.).
# [4] = tested on: prostate, seminal vesicles and levator ani muscle; test: Androgenic and anabolic activity in castrated immature male rats, subcutaneous osmotic pumps, 14 days; format: in vivo, rat; conditions: castrated rats, 14 days, FIG. 2
# Description: Immature male Sprague-Dawley rats, weighing 90 to 100 g, were purchased from Harlan Biosciences (Indianapolis, Ind.). The animals were maintained on a 12 hour light-dark cycle with food and water available ad libitum.
# Rats were randomly distributed into treatment groups groups. One day prior to the start of drug treatment, animals were individually removed from the cage, weighed and anesthetized with an intraperitoneal dose of ketamine/xylazine (87/13 mg/kg; approximately 1 mL per kg). When appropriately anesthetized (i.e., no response to toe pinch), the animals' ears were marked for identification purposes. Animals were then placed on a sterile pad and their abdomen and scrotum washed with betadine and 70% alcohol. The testes were removed via a midline scrotal incision, with sterile suture being used to ligate supra-testicular tissue prior to surgical removal of each testis. The surgical wound site was closed with sterile stainless steel wound clips, and the site cleaned with betadine. The animals were allowed to recover on a sterile pad (until able to stand) and then returned to their cage.
# Twenty-four hours later, animals were re-anesthetized with ketamine/xylazine, and an Alzet osmotic pump(s) (model 2002) was placed subcutaneouly in the scapular region. In this instance, the scapular region was shaved and cleaned (betadine and alcohol) and a small incision (1 cm) made using a sterile scalpel. The osmotic pump was inserted and the wound closed with a sterile stainless steel wound clip. Animals were allowed to recover and were returned to their cage. Osmotic pumps contained the appropriate treatment dissolved in polyethylene glycol 300 (PEG300). Osmotic pumps were filled with the appropriate solution one day prior to implantation. Animals were monitored daily for signs of acute toxicity to drug treatment (e.g., lethargy, rough coat).
# After 14 days of drug treatment, rats were anesthetized with ketamine/xylazine. Animals were then sacrificed by exsanguinations under anesthesia. A blood sample was collected by venipuncture of the abdominal aorta, and submitted for complete blood cell analysis. A portion of the blood was placed in a separate tube, centrifuged at 12,000 g for 1 minute, and the plasma layer removed and frozen at −20° C. The ventral prostates, seminal vesicles, levator ani muscle, liver, kidneys, spleen, lungs, and heart were removed, cleared of extraneous tissue, weighed, and placed in vials containing 10% neutral buffered formalin. Preserved tissues were sent for histopathological analysis.
# For data analysis, the weights of all organs were normalized to body weight, and analyzed for any statistical significant difference by single-factor ANOVA. The weights of prostate and seminal vesicle were used as indexes for evaluation of androgenic activity, and the levator ani muscle weight was used to evaluate the anabolic activity.
# [5] = tested on: prostate, seminal vesicles and levator ani muscle; test: Androgenic and anabolic effects in intact, hemi-orchidectomized and castrated rats, subdermal osmotic pumps, 14 days; format: in vivo, rat; conditions: 0.5 mg/day, n = 5
# Description: Male Sprague-Dawley rats were purchased from Harlan Biosciences (Indianapolis, Ind.). The animals were maintained on a 12 h cycle of light and dark with food and water available ad libitum. All animal studies were reviewed and approved. Immature male Sprague-Dawley rats weighing 187 to 214 g were randomly distributed into 9 groups of 5 animals. One day before the initiation of drug treatment, groups 4 through 6 and groups 7 through 9 received unilateral or bilateral orchidectomy, respectively, via a midline scrotal incision. […] All drugs given to animals were freshly prepared as solutions in polyethylene glycol 300 (PEG 300). Groups 4 and 7 received treatment with vehicle alone (i.e., PEG 300). […] Animals in groups 2, 5, and 8 received compound of Formula XII (0.5 mg/day) via implantation of subdermal osmotic pumps. After 14 days of drug treatment, rats were weighed, anesthetized, and sacrificed. The ventral prostates, seminal vesicles, and levator ani muscle were removed and weighed. Osmotic pumps were also removed from animals to check for correct pump operation. The weights of all organs were normalized to body weight, and analyzed for any statistically significant differences between groups using single-factor ANOVA with the alpha value set a priori at p<0.05. The weights of prostates and seminal vesicles were used as indices for evaluation of androgenic activity, and the levator ani muscle weight was used to evaluate the anabolic activity. Statistical analyses of parameters from complete blood count or serum chemical profiling, wherever applicable, were performed by single-factor ANOVA with the alpha value set a priori at p<0.05.
# [6] = tested on: levator ani muscle; test: Levator ani muscle weight in castrated rats treated subcutaneously for 14 days; format: in vivo, rat; conditions: castrated Sprague Dawley rats, subcutaneous, 3 mg/day
# Excerpt: At sacrifice, organs were weighed and expressed as raw organ weights. Values are expressed as average±S.D. Increased size and strength of pelvic floor muscles is one mechanism by which SARMs are believed to affect UI.
# At sacrifice, organs were weighed and expressed as raw organ weights. Values are expressed as average±S.D.
# [7] = tested on: women with stress urinary incontinence; conditions: cited from earlier work; for median incontinence episode frequency decreased: placebo 41%
# [8] = compared with the vehicle control
smiles,measurement,setting,value
C[C@](O)(COc1ccc(F)cc1)C(=O)Nc1ccc([N+](=O)[O-])c(C(F)(F)F)c1 [Compound H-1],Emax in levator ani muscle,[1],75 ± 4 % of intact control
C[C@](O)(COc1ccc(Cl)cc1)C(=O)Nc1ccc([N+](=O)[O-])c(C(F)(F)F)c1 [Compound H-2],Emax in levator ani muscle,[1],136 ± 9 % of intact control
C[C@H](Nc1ccc(C#N)c(Cl)c1Cl)C(C)(C)O [GSK2849466A],increase of amplitude of urethral responses during sneezing (AURS),[2]; [8],74%
same,increase of urethral baseline pressure (UBP),[2]; [8],64%
same,rats with fluid leakage during sneezing,[2]; vehicle group 8/8,1/8
C[C@](O)(COc1ccc(I)cc1)C(=O)Nc1ccc([N+](=O)[O-])c(C(F)(F)F)c1 [Compound H-4],Emax in levator ani muscle,[1],95 ± 7 % of intact control
"CCC(=O)O[C@H]1CC[C@H]2[C@@H]3CCC4=CC(=O)CC[C@]4(C)[C@H]3CC[C@]12C [TP, testosterone propionate, reference compound]",maximal stimulation of levator ani muscle weight,[3],104%
same,"weights of prostate, seminal vesicle and levator ani muscle",[4],"increased the weights of prostate, seminal vesicle, and levator ani muscle in castrated rats in a dose-dependent manner"
same,Levator Ani weight,[5]; Castrated rats,87.27 ± 10.25 % of intact control
same,prostate weight,[5]; Castrated rats,76.78 ± 10.43 % of intact control
same,seminal vesicle weight,[5]; Castrated rats,63.48 ± 17.05 % of intact control
same,Levator Ani weight,[5]; Hemi-castrated rats,98.63 ± 10.47 % of intact control
same,prostate weight,[5]; Hemi-castrated rats,98.57 ± 7.98 % of intact control
same,seminal vesicle weight,[5]; Hemi-castrated rats,114.19 ± 23.81 % of intact control
same,Levator Ani weight,[5]; Intact rats,95.61 ± 9.34 % of intact control
same,prostate weight,[5]; Intact rats,97.45 ± 10.82 % of intact control
same,seminal vesicle weight,[5]; Intact rats,103.95 ± 13.23 % of intact control
"C[C@]12CCC(=O)C[C@@H]1CC[C@@H]1[C@@H]2CC[C@]2(C)[C@@H](O)CC[C@@H]12 [DHT, dihydrotestosterone, reference compound]",levator ani muscle weight,[6],elicits hypertrophy of the levator ani muscle
CNCC[C@H](Oc1cccc2ccccc12)c1cccs1 [duloxetine],reduction in incontinence episode frequency,"[7]; Dmochowski et al., placebo 27%",50%
same,median incontinence episode frequency decreased,[7]; duloxetine 20 mg/day,54%
same,median incontinence episode frequency decreased,[7]; duloxetine 40 mg/day,59%
same,median incontinence episode frequency decreased,[7]; duloxetine 80 mg/day,64%

# Source: US20180353460A1, “METHODS OF TREATING UROLOGICAL DISORDERS USING SARMs” (priority 2014, published 2018)
